According to patent US11579149B2, “Hippo pathway bioluminescent biosensor” (Queen's University at Kingston, priority 2017, dated 2023):

Tests used:
LATS kinase activity [1] = assay: LATS-BS under stimuli regulating Hippo signaling (in vitro luciferase assay and live cell luciferase imaging); format: cell-based, human; conditions: cell lysates (luciferase assay) and live cells (BLI)
Procedure: For live cell imaging, LATS-BS or a pGL3-control vector were transfected into HEK293, MDA-MB-231 or A549 cells. After 48 hours, cells were trypsinized and collected in a black, clear bottomed, 96-well plate. 150 μg/mL D-luciferin (D-Luciferin, Potassium Salt, GoldBio #LUCK-250) in media was added to each well 5-10 min before imaging. Exposure time for images was approximately 3 min/plate. Imaging was performed using a LightTools Research system (Synopsys, Ltd., Mountain View, Calif., USA) dark box and a Hamamatsu ORCA-Flash4.0 V2 digital CMOS camera over the course of 20 minutes to establish optimal peak luciferase activity. The bioluminescence of the regions of interest was analyzed for total emission flux using Image-Pro® Plus software (Media Cybernetics, Inc., Rockville, Md., USA).
Experiments were conducted to further validate the LATS intermolecular biosensor and explore potential applications for its use. The LATS-BS responded to numerous signals reported to modulate Hippo pathway activity, including cell confluency, drugs activating Hippo signaling (Forskolin, PI3K inhibitor, PDK inhibitor, F-IBMX, and 2-deoxy-glucose) and Hippo signaling inhibitors (LPA, EGF, Insulin, S1P, and TPA). The LATS-BS is activated by LATS in various cell lines (e.g., A549, MDA-MB231).
The following compound treatments were used for in vitro luciferase assay and live cells imaging: RAF inhibitor (GW5054, Cayman Chemical, Ann Arbor, Mich., USA), ATR inhibitor (CGK733, Cayman Chemical), PI3K inhibitor 1 (GDC0941, Cayman Chemical), PI3K inhibitor 2 (LY294002, Cayman Chemical), PDK inhibitor (GSK2334470, Cayman Chemical)—10 μM for 4 hours; EGF-100 ng/mL for 1 hour; insulin (Sigma #91077C)—10 μg/ml for 1 hour, F/IBMX (Forskolin, Cayman Chemical/IBMX, Cayman Chemical)—0.1-10 μM for Forskolin and 100 μM for IBMX for 1 hour; L-α-lysophosphatidic acid (LPA) (Sigma #L7260)—0.1-10 μM for 1 hour, sphingosine1-phosphophate (S1P)—1 μM for 1 hour; 12-O-tetradecanoylphorbol-13-acetate (TPA) (#41745; Cell Signaling Technology, Inc., Danvers, Mass., USA)—5 nM for 1 hour; 2-deoxy glucose (#D8375, Sigma-Aldrich Canada Co., Oakville, Ontario, Canada)—25 mM for 1 hour.

LATS kinase activity [2] = assay: LATS-BS validation in transfected HEK293 cells (luciferase assay / western blot); format: cell-based, human; conditions: HEK293 co-transfected with LATS-BS and MST2, 10 μM LPA for 1 hour before collection
Procedure: In a validation study, LATS-BS was transfected alone or together with LATS2 or/and MST2 into HEK293 cells and biosensor activity or NLuc-YAP15-S127 phosphorylation status were determined 48 hours after transfection by luciferase assay or western blot, respectively. As depicted in FIG. 2C, HEK293 cells transfected with LATS-BS alone had low luciferase activity and this was correlated with a low degree of Nluc-YAP15-S127 phosphorylation. Co-transfection of LATS-BS with MST2 was associated with increases in both Nluc-YAP-S127 phosphorylation and luciferase activity, and this effect was suppressed with lysophosphatidic acid (LPA), an inhibitor of the Hippo pathway. For lysophosphatidic acid (LPA) treatment, cells were stimulated with 10 μM LPA for 1 hour before collection (n=3). LATS-BS co-expression with both MST2 and LATS2 was correlated with further increases in Nluc-YAP15-S127 phosphorylation and luciferase activity. Collectively, these observations are consistent with a model where MST2 activates LATS2, which phosphorylates Nluc-YAP15-S127, leading to binding with Cluc-14-3-3 and reconstitution of active luciferase.

Molecule | LATS-BS response to signals modulating Hippo pathway activity (LATS kinase activity [1]) | Nluc-YAP-S127 phosphorylation (western blot) (LATS kinase activity [2]) | LATS-BS luciferase activity (LATS kinase activity [2]; n=3)
L-α-lysophosphatidic acid [LPA] | responded | suppressed | suppressed
CNc1nc(-c2ccc3c(N)n[nH]c3c2)cc(N2C[C@@H](C(=O)NC3CCCCC3)CC[C@H]2C)n1 [PDK inhibitor] | responded | – | –
O=CC[C@@H](O)[C@H](O)[C@H](O)CO [2-deoxy-glucose, 2-deoxy glucose] | responded | – | –
CCCCCCCCCCCCCC(=O)O[C@@H]1[C@@H](C)[C@@]2(O)[C@@H](C=C(CO)C[C@]3(O)C(=O)C(C)=C[C@@H]23)[C@@H]2C(C)(C)[C@]12OC(C)=O [TPA, 12-O-tetradecanoylphorbol-13-acetate] | responded | – | –
CCCCCCCCCCCCC/C=C/[C@@H](O)[C@@H](N)COP(=O)(O)O [S1P, sphingosine1-phosphophate] | responded | – | –
EGF: Hippo signaling inhibitor | responded | – | –
Insulin: Hippo signaling inhibitor (Sigma #91077C) | responded | – | –
